Reference: the NIST ThermoML archive (doi:10.1021/je060271a)
Numbers after ± are expanded uncertainties.

Conditions: 323.15 K, Liquid, Vibrating tube method

CCCC(=O)OCC(COC(=O)CCC)(COC(=O)CCC)COC(=O)CCC [pentaerythritol tetrabutyrate]
mass density (15786 kPa): 1036 ± 1.2 kg/m3 | mass density (15818 kPa): 1036 ± 1.2 kg/m3 | mass density (15856 kPa): 1036.1 ± 1.2 kg/m3 | mass density (15888 kPa): 1036 ± 1.2 kg/m3 | mass density (15920 kPa): 1036 ± 1.2 kg/m3 | mass density (15952 kPa): 1036.1 ± 1.2 kg/m3 | mass density (15991 kPa): 1036.1 ± 1.2 kg/m3 | mass density (16024 kPa): 1036.1 ± 1.2 kg/m3 | mass density (16057 kPa): 1036.1 ± 1.2 kg/m3 | mass density (16097 kPa): 1036.2 ± 1.2 kg/m3 | mass density (16131 kPa): 1036.3 ± 1.2 kg/m3 | mass density (16164 kPa): 1036.2 ± 1.2 kg/m3 | mass density (16204 kPa): 1036.3 ± 1.2 kg/m3 | mass density (16238 kPa): 1036.4 ± 1.2 kg/m3 | mass density (16305 kPa): 1036.3 ± 1.2 kg/m3 | mass density (16381 kPa): 1036.4 ± 1.2 kg/m3 | mass density (16759 kPa): 1036.6 ± 1.2 kg/m3 | mass density (16795 kPa): 1036.7 ± 1.2 kg/m3 | mass density (16831 kPa): 1036.7 ± 1.2 kg/m3 | mass density (16875 kPa): 1036.7 ± 1.2 kg/m3 | mass density (18410 kPa): 1037.7 ± 1.2 kg/m3 | mass density (18440 kPa): 1037.7 ± 1.2 kg/m3 | mass density (18726 kPa): 1037.9 ± 1.2 kg/m3 | mass density (18756 kPa): 1038 ± 1.2 kg/m3 | mass density (19188 kPa): 1038.2 ± 1.3 kg/m3 | mass density (19252 kPa): 1038.3 ± 1.3 kg/m3 | mass density (19278 kPa): 1038.4 ± 1.3 kg/m3 | mass density (19311 kPa): 1038.3 ± 1.3 kg/m3 | mass density (19396 kPa): 1038.4 ± 1.3 kg/m3 | mass density (19436 kPa): 1038.4 ± 1.3 kg/m3 | mass density (19469 kPa): 1038.4 ± 1.3 kg/m3 | mass density (19501 kPa): 1038.4 ± 1.3 kg/m3 | mass density (19541 kPa): 1038.4 ± 1.3 kg/m3 | mass density (19574 kPa): 1038.4 ± 1.3 kg/m3 | mass density (19608 kPa): 1038.4 ± 1.3 kg/m3 | mass density (19648 kPa): 1038.6 ± 1.3 kg/m3 | mass density (19682 kPa): 1038.6 ± 1.3 kg/m3 | mass density (19970 kPa): 1038.7 ± 1.3 kg/m3 | mass density (20047 kPa): 1038.7 ± 1.3 kg/m3 | mass density (20089 kPa): 1038.7 ± 1.3 kg/m3 | mass density (20124 kPa): 1038.7 ± 1.3 kg/m3 | mass density (20159 kPa): 1038.9 ± 1.3 kg/m3 | mass density (20202 kPa): 1038.8 ± 1.3 kg/m3 | mass density (20238 kPa): 1039 ± 1.3 kg/m3 | mass density (20546 kPa): 1039.1 ± 1.3 kg/m3 | mass density (20584 kPa): 1039 ± 1.3 kg/m3 | mass density (21551 kPa): 1039.8 ± 1.3 kg/m3 | mass density (21639 kPa): 1039.7 ± 1.3 kg/m3 | mass density (21673 kPa): 1039.9 ± 1.3 kg/m3 | mass density (21714 kPa): 1039.9 ± 1.3 kg/m3 | mass density (21749 kPa): 1039.8 ± 1.3 kg/m3 | mass density (21784 kPa): 1039.8 ± 1.3 kg/m3 | mass density (21826 kPa): 1039.9 ± 1.3 kg/m3 | mass density (21862 kPa): 1040 ± 1.3 kg/m3 | mass density (21898 kPa): 1040 ± 1.3 kg/m3 | mass density (21934 kPa): 1040 ± 1.3 kg/m3 | mass density (21976 kPa): 1040 ± 1.3 kg/m3 | mass density (22011 kPa): 1040 ± 1.3 kg/m3 | mass density (22048 kPa): 1040 ± 1.3 kg/m3 | mass density (22091 kPa): 1040.1 ± 1.3 kg/m3 | mass density (22126 kPa): 1040 ± 1.3 kg/m3 | mass density (22162 kPa): 1040.2 ± 1.3 kg/m3 | mass density (22206 kPa): 1040.1 ± 1.3 kg/m3 | mass density (22243 kPa): 1040.2 ± 1.3 kg/m3 | mass density (22279 kPa): 1040.1 ± 1.3 kg/m3 | mass density (22323 kPa): 1040.3 ± 1.3 kg/m3 | mass density (22360 kPa): 1040.1 ± 1.3 kg/m3 | mass density (22398 kPa): 1040.2 ± 1.3 kg/m3 | mass density (22443 kPa): 1040.4 ± 1.3 kg/m3 | mass density (22480 kPa): 1040.3 ± 1.3 kg/m3 | mass density (22518 kPa): 1040.3 ± 1.3 kg/m3 | mass density (22563 kPa): 1040.3 ± 1.3 kg/m3 | mass density (22602 kPa): 1040.4 ± 1.3 kg/m3 | mass density (23845 kPa): 1041.3 ± 1.3 kg/m3 | mass density (23898 kPa): 1041.2 ± 1.3 kg/m3 | mass density (23944 kPa): 1041.2 ± 1.3 kg/m3 | mass density (23987 kPa): 1041.3 ± 1.3 kg/m3 | mass density (24030 kPa): 1041.3 ± 1.3 kg/m3 | mass density (24100 kPa): 1041.4 ± 1.3 kg/m3 | mass density (24135 kPa): 1041.4 ± 1.3 kg/m3 | mass density (24290 kPa): 1041.4 ± 1.3 kg/m3 | mass density (24326 kPa): 1041.4 ± 1.3 kg/m3 | mass density (24362 kPa): 1041.4 ± 1.3 kg/m3 | mass density (24397 kPa): 1041.5 ± 1.3 kg/m3 | mass density (24789 kPa): 1041.8 ± 1.3 kg/m3 | mass density (24827 kPa): 1041.8 ± 1.3 kg/m3 | mass density (24872 kPa): 1041.9 ± 1.3 kg/m3 | mass density (24910 kPa): 1041.8 ± 1.3 kg/m3 | mass density (25317 kPa): 1042.1 ± 1.3 kg/m3 | mass density (25357 kPa): 1042.1 ± 1.3 kg/m3 | mass density (25403 kPa): 1042.2 ± 1.3 kg/m3 | mass density (25442 kPa): 1042.2 ± 1.3 kg/m3 | mass density (25481 kPa): 1042.2 ± 1.3 kg/m3 | mass density (25528 kPa): 1042.2 ± 1.3 kg/m3 | mass density (25569 kPa): 1042.3 ± 1.3 kg/m3 | mass density (25608 kPa): 1042.2 ± 1.3 kg/m3 | mass density (25656 kPa): 1042.3 ± 1.3 kg/m3 | mass density (25696 kPa): 1042.3 ± 1.3 kg/m3 | mass density (25736 kPa): 1042.3 ± 1.3 kg/m3 | mass density (25784 kPa): 1042.5 ± 1.3 kg/m3 | mass density (26584 kPa): 1042.8 ± 1.3 kg/m3 | mass density (27050 kPa): 1043.1 ± 1.3 kg/m3 | mass density (27094 kPa): 1043.1 ± 1.3 kg/m3 | mass density (27148 kPa): 1043.2 ± 1.3 kg/m3 | mass density (27193 kPa): 1043.3 ± 1.3 kg/m3 | mass density (27239 kPa): 1043.4 ± 1.3 kg/m3 | mass density (27294 kPa): 1043.3 ± 1.3 kg/m3 | mass density (27340 kPa): 1043.4 ± 1.3 kg/m3 | mass density (27386 kPa): 1043.3 ± 1.3 kg/m3 | mass density (27432 kPa): 1043.4 ± 1.3 kg/m3 | mass density (27488 kPa): 1043.4 ± 1.3 kg/m3 | mass density (27535 kPa): 1043.5 ± 1.3 kg/m3 | mass density (27876 kPa): 1043.7 ± 1.3 kg/m3 | mass density (27985 kPa): 1043.8 ± 1.3 kg/m3 | mass density (28093 kPa): 1043.7 ± 1.3 kg/m3 | mass density (28151 kPa): 1044 ± 1.3 kg/m3 | mass density (28200 kPa): 1043.9 ± 1.3 kg/m3 | mass density (28250 kPa): 1043.9 ± 1.3 kg/m3 | mass density (28409 kPa): 1044 ± 1.3 kg/m3 | mass density (28460 kPa): 1044.1 ± 1.3 kg/m3 | mass density (28519 kPa): 1044 ± 1.3 kg/m3 | mass density (28562 kPa): 1044.2 ± 1.3 kg/m3 | mass density (28628 kPa): 1044.1 ± 1.3 kg/m3 | mass density (28679 kPa): 1044.2 ± 1.3 kg/m3 | mass density (28730 kPa): 1044.2 ± 1.3 kg/m3 | mass density (29066 kPa): 1044.5 ± 1.3 kg/m3 | mass density (29135 kPa): 1044.4 ± 1.3 kg/m3 | mass density (29177 kPa): 1044.5 ± 1.3 kg/m3 | mass density (29260 kPa): 1044.5 ± 1.3 kg/m3 | mass density (29301 kPa): 1044.6 ± 1.3 kg/m3 | mass density (29338 kPa): 1044.7 ± 1.3 kg/m3 | mass density (29373 kPa): 1044.7 ± 1.3 kg/m3 | mass density (29415 kPa): 1044.7 ± 1.3 kg/m3 | mass density (29449 kPa): 1044.6 ± 1.3 kg/m3 | mass density (29492 kPa): 1044.7 ± 1.3 kg/m3 | mass density (29529 kPa): 1044.8 ± 1.3 kg/m3 | mass density (29563 kPa): 1044.8 ± 1.3 kg/m3 | mass density (29598 kPa): 1044.6 ± 1.3 kg/m3 | mass density (29642 kPa): 1044.9 ± 1.3 kg/m3 | mass density (29678 kPa): 1044.8 ± 1.3 kg/m3 | mass density (29720 kPa): 1044.9 ± 1.3 kg/m3 | mass density (29756 kPa): 1044.8 ± 1.3 kg/m3 | mass density (29793 kPa): 1044.8 ± 1.3 kg/m3 | mass density (29839 kPa): 1044.9 ± 1.3 kg/m3 | mass density (30028 kPa): 1045.1 ± 1.3 kg/m3 | mass density (30074 kPa): 1045.1 ± 1.3 kg/m3
